We go through 20 compounds from patent publication US20210369710A1, “MODULATORS OF MYC FAMILY PROTO-ONCOGENE PROTEIN” (Nalo Therapeutics, priority 2019, published 2021).

In one test the target is T1, MycC Protein (Homo sapiens, UniProt P01106).
T1 construct: endogenous in cells; host or cells: HL-60 or SKNBE2
Description: Degradation of MycC protein, Western blot band density in cells. The format is cell-based. The conditions noted are these: HL-60 or SKNBE2 cells; 6 uL of compound (1 mM) added to 3 mL cells; 6 hours; Western blot band density (ImageJ). How it is done:
(§1) In a T150 flask was plated either 2×10^6 of HL-60 (human leukemia cell line) or SKNBE2 (neuroblastoma cell line) cells in a total of 30 mL containing Roswell Park Memorial Institute (RPMI) 1640 Medium (Thermo Fisher, Cat. #11875-085), 10% Fetal Bovine Serum (FBS, Thermo Fisher: Cat. #10437-028), 1% Penicillin/streptomycin (Thermo Fisher: Cat. #10378016), and 1% Amophotericin B (Thermo Fisher, Cat. #15290026). The cells were split every 72 hours by reseeding the HL-60 or SKNBE2 cells, and the passage number was noted. It is noteworthy that cell cultures that were above 40 passages were not used, and most experiments were done with cells of less than 30 passages.
(§2) In a 6-well cell culture plate, a total of 3 mL of either 1×10^6 cells/mL of HL-60 or SKNBE2 cells were seeded, resulting in a total of 3×10^6 cells per well. To each well containing 3 mL of either HL-60 or SKNBE2 cell line was added 6 uL of MycN modulating compound (1 mM) and the resulting plate was shaken from left to right, and not swirled. After 6 hours, the cells were placed in a 15 mL falcon tube and spun at 500 Gs at 4° C. in a swinging bucket centrifuge. The medium was then carefully removed without disturbing the pellet. The pellet was then washed with 3 mLs of chilled phosphate buffered saline (PBS) and subjected to the spin cycle. PBS was then removed and the pellet was lysed in 200 uL of radioimmunoprecipitation (RIPA) lysis buffer (Thermo Fisher: Cat. #899000) that is supplemented with protease and phosphatase inhibitors (Thermo Fisher: Cat. #A32959). The cell lysate was then subjected to spinning in a centrifuge for 10 minutes at 13000G at 4° C. The supernatant was then carefully transferred to a fresh eppendorf tube without disturbing the pellet (˜180 uL). The protein concentration of the cell lysate was then determined by using a bicinchoninic acid (BCA assay) according to manufacturer's protocol (Thermo Fisher: Cat. #23227).
(§3) Cell lysate, approximately 25 ug-30 ug, was loaded per well in a 4-20% polyacrylamide gel (Biorad. Cat. #5671094). After running the dye front off of the gel, the gel was transferred to a nitrocellulose membrane (Biorad: Cat. #1704159) using the transblot turbo system (Biorad: Cat. #1704150) according to manufacturer's protocol. After transferring for 30 minutes, the membrane was blocked with 5% BSA for 1 hour at room temperature. The BSA was then washed off and the primary antibody of choice (1:500) was added, and the membrane was incubated with the primary antibody at 4° C. for overnight. The next morning, the primary antibody was removed and the membrane was washed with 1×-TBST for 10 minutes and repeated three more times. Following the last wash, a secondary antibody (Molecular Devices. Cat. #R8209 or R8208) was added at 1:5000 dilution and incubated for 1 hour at room temperature. Following the incubation with the secondary antibody, the membrane was washed with 1×-TBST for 10 minutes and repeated three more times. Following the last wash, the membrane was washed with de-ionized water twice and dried for at least two hours. Once the membrane is completely dry, the Molecular Devices Spectra Max western system was used to observe the bands. The western image was saved and the band density was measured with ImageJ software.
A general note: In western blotting, separated proteins are transferred to a membrane and probed.

A further test concerns the target T2, MycN Protein (Homo sapiens, UniProt P04198).
T2 construct: endogenous in cells; host or cells: HL-60 or SKNBE2
T2 sequence (P04198 1-464): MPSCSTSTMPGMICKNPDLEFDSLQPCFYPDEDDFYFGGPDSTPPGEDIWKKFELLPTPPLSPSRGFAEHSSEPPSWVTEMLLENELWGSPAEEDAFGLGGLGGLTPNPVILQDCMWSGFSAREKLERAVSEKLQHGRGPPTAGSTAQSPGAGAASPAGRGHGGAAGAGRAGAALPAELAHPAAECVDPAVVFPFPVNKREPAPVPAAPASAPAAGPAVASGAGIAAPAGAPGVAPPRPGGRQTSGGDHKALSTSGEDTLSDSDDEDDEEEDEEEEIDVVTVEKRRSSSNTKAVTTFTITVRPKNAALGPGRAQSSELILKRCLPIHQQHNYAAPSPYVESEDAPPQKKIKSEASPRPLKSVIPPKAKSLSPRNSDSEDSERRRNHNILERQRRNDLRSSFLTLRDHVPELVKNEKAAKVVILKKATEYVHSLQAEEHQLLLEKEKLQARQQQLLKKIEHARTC
Description: Degradation of MycN protein, Western blot band density in cells. The settings on record: HL-60 or SKNBE2 cells; 6 uL of compound (1 mM) added to 3 mL cells; 6 hours; Western blot band density (ImageJ). The format is cell-based. How it is done:
as §1, §2, §3

T1 sequence (P01106 whole entry): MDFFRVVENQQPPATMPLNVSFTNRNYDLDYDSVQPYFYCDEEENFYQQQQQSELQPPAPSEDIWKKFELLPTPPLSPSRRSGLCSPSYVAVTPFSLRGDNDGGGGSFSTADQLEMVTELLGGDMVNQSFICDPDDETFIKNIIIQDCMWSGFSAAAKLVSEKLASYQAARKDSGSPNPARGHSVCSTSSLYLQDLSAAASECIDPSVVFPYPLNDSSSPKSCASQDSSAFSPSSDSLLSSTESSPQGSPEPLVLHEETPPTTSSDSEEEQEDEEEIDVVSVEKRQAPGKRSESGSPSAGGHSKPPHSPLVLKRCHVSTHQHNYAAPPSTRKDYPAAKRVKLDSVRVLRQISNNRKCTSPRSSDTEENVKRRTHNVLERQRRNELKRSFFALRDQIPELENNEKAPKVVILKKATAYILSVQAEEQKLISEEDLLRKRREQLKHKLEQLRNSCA

Regarding `O=C(NC1CCCC(N2CCCC2=O)C1)N[C@H]1CC[C@H](Nc2nccc(Nc3cc(C4CCCC4)[nH]n3)n2)CC1` (mixture of isomers) [Compound 27, 1-((1R,4R)-4-((4-((5-cyclopentyl-1H-pyrazol-3-yl)amino)pyrimidin-2-yl)amino)cyclohexyl)-3-(3-(2-oxopyrrolidin-1-yl)cyclohexyl)urea], the Dmax at 2 µM on MycC Protein and at MycN Protein was less than 20% throughout.
Take `N#Cc1ccc2c(c1)CC(NC(=O)N[C@H]1CC[C@H](Nc3nccc(Nc4cc(C5CCCC5)[nH]n4)n3)CC1)C2` (mixture of isomers) [Compound 11 (Racemic), 1-(5-cyano-2,3-dihydro-1H-inden-2-yl)-3-((1R,4R)-4-((4-((5-cyclopentyl-1H-pyrazol-3-yl)amino)pyrimidin-2-yl)amino)cyclohexyl)urea]: the “% Degradation of MycC” value on MycC Protein is on record as “**** (****: degradation 80-100%)”. Also, the “% Degradation of MycN” value at MycN Protein was “**** (****: degradation 80-100%)”.
For the compound `CN(c1nccc(Nc2cc(C3CCCC3)[nH]n2)n1)C1CCC(NC(=O)NC2Cc3ccc(C#N)cc3C2)CC1` (racemic) [Compound 16 (Racemic), 1-(5-cyano-2,3-dihydro-1H-inden-2-yl)-3-((1R,4R)-4-((4-((5-cyclopentyl-1H-pyrazol-3-yl)amino)pyrimidin-2-yl)(methyl)amino)cyclohexyl)urea], the “% Degradation of MycC” value on MycC Protein is listed as “**** (****: degradation 80-100%)”. In addition, on MycN Protein, the “% Degradation of MycN” value was “**** (****: degradation 80-100%)”.
As for `CN(c1nccc(Nc2cc(C3CCCC3)[nH]n2)n1)C1CCC(NC(=O)N[C@H]2CCC[C@@H](C(F)(F)F)C2)CC1` (mixture of isomers) [Compound 121 (Racemic), 1-((1R,4S)-4-((4-((5-cyclopentyl-1H-pyrazol-3-yl)amino)pyrimidin-2-yl)(methyl)amino)cyclohexyl)-3-((1S,3R)-3-(trifluoromethyl)cyclohexyl)urea], at MycC Protein, the “% Degradation of MycC” value is “*** (***: degradation 50-79%)”. At MycN Protein, the “% Degradation of MycN” value is reported as “*** (***: degradation 50-79%)”.
Turning to `CC(=O)N1CCC(NC(=O)N[C@H]2CC[C@H](Nc3nccc(Nc4cc(C5CCCC5)[nH]n4)n3)CC2)CC1` [Compound 2, 1-(1-acetylpiperidin-4-yl)-3-((1R,4R)-4-((4-((5-cyclopentyl-1H-pyrazol-3-yl)amino)pyrimidin-2-yl)amino)cyclohexyl)urea], the maximal degradation (Dmax) at 2 µM was less than 20% on MycC Protein and 20 to 49% on MycN Protein.
On the same counts, the results for `CS(=O)(=O)c1ccc2c(c1)CC(NC(=O)N[C@H]1CC[C@H](Nc3nccc(Nc4cc(C5CCCC5)[nH]n4)n3)CC1)C2` (stereo partly drawn) [Compound 3, 1-((1R,4R)-4-((4-((5-cyclopentyl-1H-pyrazol-3-yl)amino)pyrimidin-2-yl)amino)cyclohexyl)-3-(5-(methylsulfonyl)-2,3-dihydro-1H-inden-2-yl)urea] are 50 to 79% and 20 to 49%.
On the same counts, the results for `CC(NC(=O)N[C@H]1CC[C@H](Nc2nccc(Nc3cc(C4CCCC4)[nH]n3)n2)CC1)c1ccccn1` (stereo partly drawn) [Compound 4] are 80 to 100% and 20 to 49%.
On the same counts, the results for `N#Cc1ccc2c(c1)CC(NC(=O)N[C@H]1CC[C@H](Nc3nccc(Nc4cc(C5CCOC5)[nH]n4)n3)CC1)C2` (stereo partly drawn) [Compound 5, 1-(5-cyano-2,3-dihydro-1H-indene-2-yl)-3-((1R,4R)-4-((4-((5-(tetrahydrofuran-3-yl)-1H-pyrazol-3-yl)amino)pyrimidine-2-yl)amino)cyclohexyl)urea] are less than 20% and 20 to 49%.
Regarding `Cc1cc(Nc2ccnc(NC3CCC(N)CC3)n2)n[nH]1` [Compound 6, N^2-((1R,4R)-4-aminocyclohexyl)-N^4-(5-methyl-1H-pyrazol-3-yl)pyrimidine-2,4-diamine], the “% Degradation of MycC” value at MycC Protein is “** (**: degradation 20-49%)”. The “% Degradation of MycN” value at MycN Protein is “* (*: degradation <20%)”.
In the case of `CCc1cc(Nc2ccnc(N[C@H]3CC[C@H](NC(=O)NC4Cc5ccc(C#N)cc5C4)CC3)n2)n[nH]1` (stereo partly drawn) [Compound 8, 1-(5-cyano-2,3-dihydro-1H-inden-2-yl)-3-((1R,4R)-4-((4-((5-ethyl-1H-pyrazol-3-yl)amino)pyrimidin-2-yl)amino)cyclohexyl)urea], the values for the Dmax at 2 µM on MycC Protein and at MycN Protein were 20 to 49% and less than 20%, respectively.
`O=C(NC1CC2CCC(C1)N2C1CC1)N[C@H]1CC[C@H](Nc2nccc(Nc3cc(C4CCCC4)[nH]n3)n2)CC1` (stereo partly drawn) [Compound 61, 1-((1R,4R)-4-((4-((5-cyclopentyl-1H-pyrazol-3-yl)amino)pyrimidin-2-yl)amino)cyclohexyl)-3-(8-cyclopropyl-8-azabicyclo[3.2.1]octan-3-yl)urea]: at MycN Protein, the Dmax at 2 µM was less than 20%.
On to `O=C(NC12CCN(CC1)CC2)N[C@H]1CC[C@H](Nc2nccc(Nc3cc(C4CCCC4)[nH]n3)n2)CC1` [Compound 68], for which, at MycN Protein, the Dmax at 2 µM lay in the range of 20 to 49%.
Same read-out and setting: the value for `O=C(Nc1cccc(C(F)(F)F)c1)N[C@@H]1CC[C@@H](Nc2nccc(Nc3cc(C4CCCC4)[nH]n3)n2)C1` [Compound 82] was 20 to 49%.
`CN1CCC(NC(=O)N[C@H]2CC[C@H](Nc3nccc(Nc4cc(C5CCCC5)[nH]n4)n3)CC2)CC1` [Compound 97, 1-((1R,4R)-4-((4-((5-cyclopentyl-1H-pyrazol-3-yl)amino)pyrimidin-2-yl)amino)cyclohexyl)-3-(1-methylpiperidin-4-yl)urea]: the Dmax at 2 µM on MycN Protein was in the range of 20 to 49%.
Same read-out and setting: in the case of `CN(C)C(=N)c1ccc2c(c1)CC(NC(=O)N[C@H]1CC[C@H](Nc3nccc(Nc4cc(C5CCCC5)[nH]n4)n3)CC1)C2` (stereo partly drawn) [Compound 98] it was less than 20%; in that of `N=C(NC1COC1)c1ccc2c(c1)CC(NC(=O)N[C@H]1CC[C@H](Nc3nccc(Nc4cc(C5CCCC5)[nH]n4)n3)CC1)C2` (stereo partly drawn) [Compound 99], less than 20%; in that of `O=C(NC1Cc2ccc(C3=NCC(O)CN3)cc2C1)N[C@H]1CC[C@H](Nc2nccc(Nc3cc(C4CCCC4)[nH]n3)n2)CC1` (stereo partly drawn) [Compound 100], less than 20%.
As for `CN(c1nccc(Nc2cc(C3CCCC3)[nH]n2)n1)[C@H]1CC[C@H](NC(=O)Nc2cccc(C(F)(F)F)c2)CC1` [Compound 146, 1-((1R,4R)-4-((4-((5-cyclopentyl-1H-pyrazol-3-yl)amino)pyrimidin-2-yl)(methyl)amino)cyclohexyl)-3-(3-(trifluoromethyl)phenyl)urea], the Dmax at 2 µM at MycN Protein was in the range of 50 to 79%.
Still for that read-out and setting: in the case of `CN(c1nccc(Nc2cc(C3CC3)[nH]n2)n1)[C@H]1CC[C@H](NC(=O)Nc2cccc(C(F)(F)F)c2)CC1` [Compound 147, 1-((1R,4R)-4-((4-((5-cyclopropyl-1H-pyrazol-3-yl)amino)pyrimidin-2-yl)(methyl)amino)cyclohexyl)-3-(3-(trifluoromethyl)phenyl)urea] it was 80 to 100%.
Same read-out and setting: the value for `CN(c1nccc(Nc2cc(C3CC3)[nH]n2)n1)[C@H]1CC[C@H](NC(=O)NC2Cc3cc(F)c(F)cc3C2)CC1` [Compound 151, 1-((1R,4R)-4-((4-((5-cyclopropyl-1H-pyrazol-3-yl)amino)pyrimidin-2-yl)(methyl)amino)cyclohexyl)-3-(5,6-difluoro-2,3-dihydro-1H-inden-2-yl)urea] was 50 to 79%.

As usually defined, the Dmax is the greatest extent of degradation seen. High values mean a fuller loss of target, low ones a partial loss of target.
